Laboratory results published in ChEMBL document CHEMBL4507281, “Data for DCP probe BI-4394” (2021).

Key:
[1] = target: Serine/threonine-protein kinase pim-3 (Homo sapiens) (UniProt Q86V86); conditions: Compound concentration 100.0 nM
[2] = target: T1, Aurora kinase A (Homo sapiens) (UniProt O14965); conditions: Compound concentration 100.0 nM
T1 sequence (whole entry): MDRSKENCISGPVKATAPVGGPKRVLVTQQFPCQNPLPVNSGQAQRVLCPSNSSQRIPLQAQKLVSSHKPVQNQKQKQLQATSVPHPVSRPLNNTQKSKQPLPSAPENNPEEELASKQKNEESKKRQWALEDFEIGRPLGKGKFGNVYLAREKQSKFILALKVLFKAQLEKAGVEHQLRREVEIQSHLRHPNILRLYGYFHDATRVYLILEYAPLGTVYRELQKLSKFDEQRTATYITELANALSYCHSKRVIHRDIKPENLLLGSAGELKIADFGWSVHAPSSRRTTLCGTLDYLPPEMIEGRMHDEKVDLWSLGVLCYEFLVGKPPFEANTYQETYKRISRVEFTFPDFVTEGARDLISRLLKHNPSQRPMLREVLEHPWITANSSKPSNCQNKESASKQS

[3] = target: Calcium/calmodulin-dependent protein kinase type 1D (Homo sapiens) (UniProt Q8IU85); conditions: Compound concentration 100.0 nM
[4] = target: Mitogen-activated protein kinase kinase kinase 5 (Homo sapiens) (UniProt Q99683); conditions: Compound concentration 100.0 nM
[5] = target: Protein-tyrosine kinase 2-beta (Homo sapiens) (UniProt Q14289); conditions: Compound concentration 100.0 nM
[6] = target: RAC-gamma serine/threonine-protein kinase (Homo sapiens) (UniProt Q9Y243); conditions: Compound concentration 100.0 nM
[7] = target: Serine/threonine-protein kinase WNK2 (Homo sapiens) (UniProt Q9Y3S1); conditions: Compound concentration 100.0 nM
[8] = target: Mitogen-activated protein kinase kinase kinase 13 (Homo sapiens) (UniProt O43283); conditions: Compound concentration 100.0 nM
[9] = target: 5'-AMP-activated protein kinase catalytic subunit alpha-1 (Homo sapiens) (UniProt Q13131); conditions: Compound concentration 100.0 nM
[10] = system: Receptor-type tyrosine-protein kinase FLT3 (Homo sapiens), P36888 [D835V]; conditions: Compound concentration 100.0 nM
[11] = target: Serine/threonine-protein kinase ICK (Homo sapiens) (UniProt Q9UPZ9); conditions: Compound concentration 100.0 nM
[12] = target: Tyrosine-protein kinase ABL1 (Homo sapiens) (UniProt P00519); conditions: Compound concentration 100.0 nM
[13] = target: T2, Serine/threonine-protein kinase Chk1 (Homo sapiens) (UniProt O14757); conditions: Compound concentration 100.0 nM
T2 sequence (whole entry): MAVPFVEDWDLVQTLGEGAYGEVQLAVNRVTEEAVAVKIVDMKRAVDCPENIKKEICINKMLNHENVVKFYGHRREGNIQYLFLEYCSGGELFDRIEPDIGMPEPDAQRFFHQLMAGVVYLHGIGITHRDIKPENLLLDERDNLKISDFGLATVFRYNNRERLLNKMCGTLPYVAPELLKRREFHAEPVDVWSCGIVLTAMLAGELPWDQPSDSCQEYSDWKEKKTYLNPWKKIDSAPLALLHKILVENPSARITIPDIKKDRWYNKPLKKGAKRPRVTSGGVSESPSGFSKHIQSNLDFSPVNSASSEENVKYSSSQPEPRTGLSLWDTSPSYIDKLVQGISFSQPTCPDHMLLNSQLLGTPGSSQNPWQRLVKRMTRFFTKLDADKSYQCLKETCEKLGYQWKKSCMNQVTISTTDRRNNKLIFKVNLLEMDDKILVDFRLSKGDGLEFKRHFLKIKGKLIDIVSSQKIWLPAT

[14] = target: Atypical kinase COQ8A, mitochondrial (Homo sapiens) (UniProt Q8NI60); conditions: Compound concentration 100.0 nM
[15] = target: Dual specificity mitogen-activated protein kinase kinase 2 (Homo sapiens) (UniProt P36507); conditions: Compound concentration 100.0 nM
[16] = target: Tyrosine-protein kinase Fyn (Homo sapiens) (UniProt P06241); conditions: Compound concentration 100.0 nM
[17] = target: Serine/threonine-protein kinase DCLK3 (Homo sapiens) (UniProt Q9C098); conditions: Compound concentration 100.0 nM
[18] = target: Casein kinase I isoform alpha-like (Homo sapiens) (UniProt Q8N752); conditions: Compound concentration 100.0 nM
[19] = target: Serine/threonine-protein kinase Chk2 (Homo sapiens) (UniProt O96017); conditions: Compound concentration 100.0 nM
[20] = target: Serine/threonine-protein kinase 25 (Homo sapiens) (UniProt O00506); conditions: Compound concentration 100.0 nM
[21] = target: Aurora kinase C (Homo sapiens) (UniProt Q9UQB9); conditions: Compound concentration 100.0 nM
[22] = target: RAC-beta serine/threonine-protein kinase (Homo sapiens) (UniProt P31751); conditions: Compound concentration 100.0 nM
[23] = target: Histamine H4 receptor (Homo sapiens) (UniProt Q9H3N8); conditions: Compound concentration 10.0 uM
[24] = target: Receptor-type tyrosine-protein kinase FLT3 (Homo sapiens) (UniProt P36888); conditions: Compound concentration 100.0 nM
[25] = target: Myosin light chain kinase 2, skeletal/cardiac muscle (Homo sapiens) (UniProt Q9H1R3); conditions: Compound concentration 100.0 nM
[26] = target: Serine/threonine-protein kinase TAO3 (Homo sapiens) (UniProt Q9H2K8); conditions: Compound concentration 100.0 nM
[27] = target: cAMP-dependent protein kinase catalytic subunit beta (Homo sapiens) (UniProt P22694); conditions: Compound concentration 100.0 nM
[28] = target: Serine/threonine-protein kinase LATS1 (Homo sapiens) (UniProt O95835); conditions: Compound concentration 100.0 nM
[29] = target: Ribosomal protein S6 kinase alpha-1 (Homo sapiens) (UniProt Q15418); conditions: Compound concentration 100.0 nM
[30] = target: GABA-A receptor; anion channel (Rattus norvegicus) (UniProt O09028+P15431+P18506+P18508+P19969+P20236+P23574+P23576+P28471+P28473+P30191+P62813+P63079+P63138+Q91ZM7+Q9ES14); conditions: Compound concentration 10.0 uM
[31] = target: Serine/threonine-protein kinase pim-2 (Homo sapiens) (UniProt Q9P1W9); conditions: Compound concentration 100.0 nM
[32] = system: Receptor-type tyrosine-protein kinase FLT3 (Homo sapiens), P36888 [R834Q]; conditions: Compound concentration 100.0 nM

Chain of RAC-gamma serine/threonine-protein kinase (Homo sapiens) (Q9Y243 whole entry): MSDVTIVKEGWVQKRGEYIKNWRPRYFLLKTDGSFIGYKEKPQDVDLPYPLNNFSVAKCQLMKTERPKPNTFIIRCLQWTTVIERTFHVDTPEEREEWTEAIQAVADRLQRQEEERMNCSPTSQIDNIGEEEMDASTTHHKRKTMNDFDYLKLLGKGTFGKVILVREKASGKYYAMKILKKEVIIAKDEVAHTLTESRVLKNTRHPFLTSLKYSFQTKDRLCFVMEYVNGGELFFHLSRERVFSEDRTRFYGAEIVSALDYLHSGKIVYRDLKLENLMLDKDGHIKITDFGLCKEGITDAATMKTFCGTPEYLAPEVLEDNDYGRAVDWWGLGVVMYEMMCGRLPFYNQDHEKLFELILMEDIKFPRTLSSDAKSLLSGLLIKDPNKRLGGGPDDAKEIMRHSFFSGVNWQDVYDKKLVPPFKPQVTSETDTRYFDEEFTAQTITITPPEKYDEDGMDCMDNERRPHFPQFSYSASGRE
Chain of Calcium/calmodulin-dependent protein kinase type 1D (Homo sapiens) (Q8IU85 whole entry, looked up): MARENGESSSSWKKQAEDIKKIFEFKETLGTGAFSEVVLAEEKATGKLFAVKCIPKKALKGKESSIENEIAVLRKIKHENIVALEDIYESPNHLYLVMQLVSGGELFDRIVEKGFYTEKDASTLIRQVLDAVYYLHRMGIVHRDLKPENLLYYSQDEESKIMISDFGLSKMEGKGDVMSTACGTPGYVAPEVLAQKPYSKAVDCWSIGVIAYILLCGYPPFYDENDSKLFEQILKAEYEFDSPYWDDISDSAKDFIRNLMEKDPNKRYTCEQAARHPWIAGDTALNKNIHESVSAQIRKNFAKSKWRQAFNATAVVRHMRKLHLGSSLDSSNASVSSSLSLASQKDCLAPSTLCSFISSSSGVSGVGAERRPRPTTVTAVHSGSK
Chain of Serine/threonine-protein kinase 25 (Homo sapiens) (O00506 whole entry, looked up): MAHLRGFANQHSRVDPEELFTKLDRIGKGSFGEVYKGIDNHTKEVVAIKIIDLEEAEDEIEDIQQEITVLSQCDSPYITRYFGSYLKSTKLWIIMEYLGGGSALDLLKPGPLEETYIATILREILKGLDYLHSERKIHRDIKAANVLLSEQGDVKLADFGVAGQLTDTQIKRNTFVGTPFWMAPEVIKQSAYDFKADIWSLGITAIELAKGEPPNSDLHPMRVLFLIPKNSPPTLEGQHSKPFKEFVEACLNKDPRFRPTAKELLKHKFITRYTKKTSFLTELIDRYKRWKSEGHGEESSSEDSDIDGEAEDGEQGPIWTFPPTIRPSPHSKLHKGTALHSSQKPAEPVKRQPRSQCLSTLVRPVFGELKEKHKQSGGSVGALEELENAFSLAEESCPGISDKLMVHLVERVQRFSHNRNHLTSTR
Chain of Casein kinase I isoform alpha-like (Homo sapiens) (Q8N752 whole entry, canonical isoform): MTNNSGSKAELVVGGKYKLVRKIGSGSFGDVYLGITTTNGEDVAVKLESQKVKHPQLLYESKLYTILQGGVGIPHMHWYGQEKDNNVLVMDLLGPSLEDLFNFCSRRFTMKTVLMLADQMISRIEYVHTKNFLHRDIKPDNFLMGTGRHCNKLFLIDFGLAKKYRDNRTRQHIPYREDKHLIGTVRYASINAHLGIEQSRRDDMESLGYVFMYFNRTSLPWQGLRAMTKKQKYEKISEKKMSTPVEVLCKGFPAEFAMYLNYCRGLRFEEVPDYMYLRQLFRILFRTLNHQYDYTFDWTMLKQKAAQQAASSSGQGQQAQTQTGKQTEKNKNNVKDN
Chain of Ribosomal protein S6 kinase alpha-1 (Homo sapiens) (Q15418 whole entry): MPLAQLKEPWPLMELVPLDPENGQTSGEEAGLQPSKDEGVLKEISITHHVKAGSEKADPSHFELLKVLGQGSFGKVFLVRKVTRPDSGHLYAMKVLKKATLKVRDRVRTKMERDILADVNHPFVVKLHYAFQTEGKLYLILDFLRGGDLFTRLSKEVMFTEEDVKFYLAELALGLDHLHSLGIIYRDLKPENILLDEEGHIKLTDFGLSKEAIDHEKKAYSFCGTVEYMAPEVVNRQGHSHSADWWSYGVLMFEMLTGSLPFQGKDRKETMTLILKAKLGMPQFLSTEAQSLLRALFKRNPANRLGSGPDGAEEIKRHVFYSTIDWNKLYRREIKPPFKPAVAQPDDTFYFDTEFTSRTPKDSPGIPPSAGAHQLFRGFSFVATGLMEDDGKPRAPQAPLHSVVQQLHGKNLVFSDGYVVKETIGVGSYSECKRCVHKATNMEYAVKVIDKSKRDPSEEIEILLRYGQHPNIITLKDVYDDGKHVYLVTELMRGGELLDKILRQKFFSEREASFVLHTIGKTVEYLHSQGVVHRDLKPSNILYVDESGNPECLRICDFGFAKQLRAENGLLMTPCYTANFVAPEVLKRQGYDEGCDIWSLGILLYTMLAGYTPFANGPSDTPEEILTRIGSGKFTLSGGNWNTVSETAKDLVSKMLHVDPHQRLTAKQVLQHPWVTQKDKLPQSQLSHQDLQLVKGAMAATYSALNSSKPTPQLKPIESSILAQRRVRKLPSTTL
Chain of Mitogen-activated protein kinase kinase kinase 5 (Homo sapiens) (Q99683 whole entry): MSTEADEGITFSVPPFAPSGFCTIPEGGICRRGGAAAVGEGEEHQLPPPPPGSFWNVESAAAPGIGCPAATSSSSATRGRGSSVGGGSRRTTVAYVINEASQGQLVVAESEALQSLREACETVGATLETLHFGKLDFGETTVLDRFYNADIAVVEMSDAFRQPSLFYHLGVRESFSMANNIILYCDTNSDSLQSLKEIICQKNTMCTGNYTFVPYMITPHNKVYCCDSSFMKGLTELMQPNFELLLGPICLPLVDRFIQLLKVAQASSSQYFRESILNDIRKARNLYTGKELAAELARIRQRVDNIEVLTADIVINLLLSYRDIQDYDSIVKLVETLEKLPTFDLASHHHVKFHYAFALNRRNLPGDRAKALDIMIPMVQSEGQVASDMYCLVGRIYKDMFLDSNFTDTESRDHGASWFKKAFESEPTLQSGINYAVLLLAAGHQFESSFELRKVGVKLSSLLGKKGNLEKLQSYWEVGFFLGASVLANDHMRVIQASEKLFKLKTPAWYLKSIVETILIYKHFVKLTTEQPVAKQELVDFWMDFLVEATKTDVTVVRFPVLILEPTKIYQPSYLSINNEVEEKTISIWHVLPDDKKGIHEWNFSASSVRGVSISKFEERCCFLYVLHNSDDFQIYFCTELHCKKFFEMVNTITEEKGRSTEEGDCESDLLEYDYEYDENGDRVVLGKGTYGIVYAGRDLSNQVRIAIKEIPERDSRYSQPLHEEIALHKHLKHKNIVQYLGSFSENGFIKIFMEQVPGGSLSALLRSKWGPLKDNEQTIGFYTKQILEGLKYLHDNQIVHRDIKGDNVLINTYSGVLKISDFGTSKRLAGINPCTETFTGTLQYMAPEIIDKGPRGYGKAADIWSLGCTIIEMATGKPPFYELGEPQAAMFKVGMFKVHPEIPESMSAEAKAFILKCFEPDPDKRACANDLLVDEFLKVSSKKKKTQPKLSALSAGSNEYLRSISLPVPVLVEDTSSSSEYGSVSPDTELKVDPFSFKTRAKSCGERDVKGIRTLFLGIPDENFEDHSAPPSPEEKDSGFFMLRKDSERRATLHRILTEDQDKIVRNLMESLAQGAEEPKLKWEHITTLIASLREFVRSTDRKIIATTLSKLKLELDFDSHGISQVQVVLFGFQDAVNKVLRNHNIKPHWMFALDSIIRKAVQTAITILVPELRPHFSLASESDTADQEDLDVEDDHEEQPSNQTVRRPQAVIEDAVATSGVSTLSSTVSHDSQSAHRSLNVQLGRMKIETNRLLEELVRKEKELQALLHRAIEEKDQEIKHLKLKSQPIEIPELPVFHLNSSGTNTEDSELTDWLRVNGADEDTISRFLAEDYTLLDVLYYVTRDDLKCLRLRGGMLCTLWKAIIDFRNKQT
Chain of Atypical kinase COQ8A, mitochondrial (Homo sapiens) (Q8NI60 163-647 limits assumed): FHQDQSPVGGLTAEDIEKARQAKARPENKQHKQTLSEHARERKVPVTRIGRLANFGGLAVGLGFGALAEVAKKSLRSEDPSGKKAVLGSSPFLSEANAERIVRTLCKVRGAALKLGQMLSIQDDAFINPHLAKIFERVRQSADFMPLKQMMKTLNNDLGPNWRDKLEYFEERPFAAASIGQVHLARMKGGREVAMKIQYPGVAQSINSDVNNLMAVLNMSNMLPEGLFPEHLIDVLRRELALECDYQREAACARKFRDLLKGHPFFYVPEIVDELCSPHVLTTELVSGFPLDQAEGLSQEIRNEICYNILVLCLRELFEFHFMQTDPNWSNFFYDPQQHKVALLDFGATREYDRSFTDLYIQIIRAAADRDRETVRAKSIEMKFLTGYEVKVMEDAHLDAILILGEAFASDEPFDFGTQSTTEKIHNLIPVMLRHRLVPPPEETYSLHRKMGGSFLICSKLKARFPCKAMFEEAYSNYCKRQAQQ
Chain of Histamine H4 receptor (Homo sapiens) (Q9H3N8 whole entry): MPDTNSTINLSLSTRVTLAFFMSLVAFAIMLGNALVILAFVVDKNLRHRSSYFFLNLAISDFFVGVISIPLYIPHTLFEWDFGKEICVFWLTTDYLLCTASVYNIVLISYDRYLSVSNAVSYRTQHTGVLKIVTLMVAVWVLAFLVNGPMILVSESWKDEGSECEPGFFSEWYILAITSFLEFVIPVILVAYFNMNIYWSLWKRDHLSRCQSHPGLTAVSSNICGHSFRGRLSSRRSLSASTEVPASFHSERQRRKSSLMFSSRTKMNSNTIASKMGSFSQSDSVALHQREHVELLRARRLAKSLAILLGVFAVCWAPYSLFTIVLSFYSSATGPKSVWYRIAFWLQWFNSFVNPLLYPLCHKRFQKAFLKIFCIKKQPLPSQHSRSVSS

CCOC(=O)c1cc2cc(-c3cc(C(=O)NCc4ccc(C(=O)O)cc4)nn3C)ccc2[nH]1 [BI 4394]
inactive: residual activity [1] 99% | residual activity [2] 90% | residual activity [3] 100% | residual activity [4] 98% | residual activity [5] 100% | residual activity [6] 86% | residual activity [7] 85% | residual activity [8] 74% | residual activity [9] 100% | residual activity [10] 90% | residual activity [11] 85% | residual activity [12] 81% | residual activity [13] 100% | residual activity [14] 100% | residual activity [15] 83% | residual activity [16] 100% | residual activity [17] 73% | residual activity [18] 100% | residual activity [19] 100% | residual activity [20] 100% | residual activity [21] 100% | residual activity [22] 100% | inhibition [23] -1.52% | residual activity [24] 90% | residual activity [25] 89% | residual activity [26] 85% | residual activity [27] 86% | residual activity [28] 97% | residual activity [29] 84% | inhibition [30] 1.07% | residual activity [31] 96% | residual activity [32] 78%

Cn1nc(C(=O)NCc2ccc(C(=O)O)cc2)cc1-c1ccc2[nH]ccc2c1 [BI 4395]
inactive: residual activity [1] 91% | residual activity [2] 100% | residual activity [3] 95% | residual activity [4] 86% | residual activity [5] 96% | residual activity [6] 88% | residual activity [7] 70% | residual activity [8] 78% | residual activity [9] 81% | residual activity [10] 98% | residual activity [11] 72% | residual activity [12] 65% | residual activity [13] 83% | residual activity [14] 100% | residual activity [15] 85% | residual activity [16] 98% | residual activity [17] 96% | residual activity [18] 94% | residual activity [19] 100% | residual activity [20] 91% | residual activity [21] 76% | residual activity [22] 96% | inhibition [23] -6.14% | residual activity [24] 86% | residual activity [25] 83% | residual activity [26] 83% | residual activity [27] 98% | residual activity [28] 100% | residual activity [29] 95% | inhibition [30] 29.1% | residual activity [31] 81% | residual activity [32] 63%
